In ChEMBL document CHEMBL1955762, “An iminosugar N-pentafluorobenzyl-1-deoxynojirimycin as a novel potential immunosuppressant for the treatment of Th2-related diseases” (Bioorg Med Chem Lett, 2012):
pIC50: −log10 of the molar value. Active and inactive are the calls of the source. The rule behind the calls is not given here.

Assays:
T-cell [1] = experiment: Immunosuppressant activity in human CD4+ T cells assessed as Con A-induced intracellular IL4 level at 90 uM after 72 hrs by flow cytometry (reference value: 4.2+/-0.9%); format: functional
PBMC [2] = experiment: Inhibition of ConA-induced phospho-JAK1 expression in human PBMC at 90 uM after 72 hrs by flow cytometry; format: functional, cell-based
PBMC [3] = experiment: Inhibition of PMA-induced GATA3 expression in human PBMC at 90 uM after 15 mins by Western blot analysis; format: functional, cell-based
PBMC [4] = experiment: Inhibition of PMA-induced JAK1 expression in human PBMC at 90 uM after 15 mins by Western blot analysis; format: functional, cell-based
T-cell [5] = experiment: Inhibition of CD4 expression in human CD4+ T cells; format: functional, cell-based
PBMC [6] = experiment: Inhibition of Con-A-induced phospho-STAT6 expression in human PBMC at 90 uM after 72 hrs by flow cytometry (reference value: 10.52+/-1.9%); format: functional; details: read-out: INH
[7] = target: Tyrosine-protein kinase JAK1 (Homo sapiens) (UniProt P23458); experiment: Inhibition of PMA-induced JAK1 phosphorylation in human PBMC at 90 uM after 15 mins by Western blot analysis
[8] = target: Tyrosine-protein kinase JAK1 (Homo sapiens) (UniProt P23458); experiment: Inhibition of JAK1-mediated GATA3 phosphorylation in PMA-stimulated human PBMC at 90 uM after 30 mins by Western blot analysis
PBMC [9] = experiment: Immunosuppressant activity in human PBMC assessed as reduction in Con A-induced extracellular IL4 level at 90 uM after 72 hrs by ELISA relative to untreated control; format: functional
PBMC [10] = experiment: Inhibition of Con A-induced phospho-GATA3 expression in human PBMC at 90 uM after 72 hrs by flow cytometry; format: functional, cell-based
[11] = target: Tyrosine-protein kinase JAK1 (Homo sapiens) (UniProt P23458); experiment: Inhibition of PMA-induced JAK1 phosphorylation in human PBMC at 90 uM by Western blot analysis; details: TDE = time-dependent effect
Mus musculus [12] = experiment: Immunosuppressant activity in C57BL/6 mouse infected with Schistosoma japonicum assessed as inhibition of IFN-gamma production in liver at 100 mM, iv after 56 days by ELISA; format: functional, organism-based
T-cell [13] = experiment: Immunosuppressant activity in human CD3+ CD4+ T cells pretreated with TritonX 100 assessed as reduction in CD4 surface expression at 90 uM after 72 hrs by flow cytometry (reference value: 46%); format: functional; design: scale not given: the % may be the effect or the level left
Mus musculus [14] = experiment: Immunosuppressant activity in C57BL/6 mouse infected with Schistosoma japonicum assessed as inhibition of IL-4 production in spleen at 100 mM, iv after 56 days by ELISA; format: functional, organism-based
PBMC [15] = experiment: Induction of apoptosis in Con A-stimulated human PBMC assessed as necrotic cells at 90 uM after 72 hrs by annexin V/PI based flow cytometric analysis (reference value: 5.8 %); format: cell-based
Mus musculus [16] = experiment: Immunosuppressant activity in C57BL/6 mouse infected with Schistosoma japonicum assessed as inhibition of IL-4 production in liver at 100 mM, iv after 56 days by ELISA; format: functional, organism-based
PBMC [17] = experiment: Induction of apoptosis in Con A-stimulated human PBMC assessed as early apoptotic cells at 90 uM after 72 hrs by annexin V/PI based flow cytometric analysis (reference value: 6.3 %); format: cell-based
Mus musculus [18] = experiment: Immunosuppressant activity in C57BL/6 mouse infected with Schistosoma japonicum assessed as inhibition of IFN-gamma production in spleen at 100 mM, iv after 45 days by ELISA; format: functional, organism-based
T-cell [19] = experiment: Immunosuppressant activity in human CD3+ CD4+ T cells assessed as reduction in CD4 surface expression at 90 uM after 72 hrs by flow cytometry (reference value: 46%); format: functional; design: scale not given: the % may be the effect or the level left
PBMC [20] = experiment: Induction of apoptosis in Con A-stimulated human PBMC assessed as late apoptotic cells at 90 uM after 72 hrs by annexin V/PI based flow cytometric analysis (reference value: 4.3 %); format: cell-based
Schistosoma japonicum = experiment: Antischistosomiasis activity against Schistosoma japonicum infected in C57BL/6 mouse at 100 mM, iv after 45 days; format: functional, organism-based
[21] = target: Tyrosine-protein kinase JAK1 (Homo sapiens) (UniProt P23458); experiment: Inhibition of JAK1-mediated GATA3 phosphorylation in PMA-stimulated human PBMC at 90 uM by Western blot analysis; details: TDE = time-dependent effect
Mus musculus [22] = experiment: Immunosuppressant activity in C57BL/6 mouse infected with Schistosoma japonicum assessed as inhibition of IFN-gamma production in liver at 100 mM, iv after 45 days by ELISA; format: functional, organism-based
[23] = Induction of apoptosis in Con A-stimulated human PBMC assessed as viable cells at 90 uM after 72 hrs by annexin V/PI based flow cytometric analysis (reference value: 84.6 %); format: cell-based; details: read-out: Activity
Mus musculus [24] = experiment: Immunosuppressant activity in C57BL/6 mouse infected with Schistosoma japonicum assessed as inhibition of IL-4 production in liver at 100 mM, iv after 45 days by ELISA; format: functional, organism-based
Splenocyte = experiment: Immunosuppressant activity in BALB/c mouse splenocytes assessed as reduction in Con A-induced IL4 secretion at 90 uM after 72 hrs by ELISA; format: functional, cell-based
T-cell [25] = experiment: Immunosuppressant activity in human CD3+ CD4+ T cells pretreated with TritonX 100 assessed as CD4 internalization at 90 uM after 72 hrs by confocal laser scanning microscopy; format: functional, cell-based
Mus musculus [26] = experiment: Immunosuppressant activity in C57BL/6 mouse infected with Schistosoma japonicum assessed as inhibition of IFN-gamma production in spleen at 100 mM, iv after 56 days by ELISA; format: functional, organism-based
Mus musculus [27] = experiment: Immunosuppressant activity in C57BL/6 mouse infected with Schistosoma japonicum assessed as decrease in liver granuloma size at 100 mM, iv after 45 days; format: functional, organism-based

Chain of Tyrosine-protein kinase JAK1 (Homo sapiens) (P23458 whole entry): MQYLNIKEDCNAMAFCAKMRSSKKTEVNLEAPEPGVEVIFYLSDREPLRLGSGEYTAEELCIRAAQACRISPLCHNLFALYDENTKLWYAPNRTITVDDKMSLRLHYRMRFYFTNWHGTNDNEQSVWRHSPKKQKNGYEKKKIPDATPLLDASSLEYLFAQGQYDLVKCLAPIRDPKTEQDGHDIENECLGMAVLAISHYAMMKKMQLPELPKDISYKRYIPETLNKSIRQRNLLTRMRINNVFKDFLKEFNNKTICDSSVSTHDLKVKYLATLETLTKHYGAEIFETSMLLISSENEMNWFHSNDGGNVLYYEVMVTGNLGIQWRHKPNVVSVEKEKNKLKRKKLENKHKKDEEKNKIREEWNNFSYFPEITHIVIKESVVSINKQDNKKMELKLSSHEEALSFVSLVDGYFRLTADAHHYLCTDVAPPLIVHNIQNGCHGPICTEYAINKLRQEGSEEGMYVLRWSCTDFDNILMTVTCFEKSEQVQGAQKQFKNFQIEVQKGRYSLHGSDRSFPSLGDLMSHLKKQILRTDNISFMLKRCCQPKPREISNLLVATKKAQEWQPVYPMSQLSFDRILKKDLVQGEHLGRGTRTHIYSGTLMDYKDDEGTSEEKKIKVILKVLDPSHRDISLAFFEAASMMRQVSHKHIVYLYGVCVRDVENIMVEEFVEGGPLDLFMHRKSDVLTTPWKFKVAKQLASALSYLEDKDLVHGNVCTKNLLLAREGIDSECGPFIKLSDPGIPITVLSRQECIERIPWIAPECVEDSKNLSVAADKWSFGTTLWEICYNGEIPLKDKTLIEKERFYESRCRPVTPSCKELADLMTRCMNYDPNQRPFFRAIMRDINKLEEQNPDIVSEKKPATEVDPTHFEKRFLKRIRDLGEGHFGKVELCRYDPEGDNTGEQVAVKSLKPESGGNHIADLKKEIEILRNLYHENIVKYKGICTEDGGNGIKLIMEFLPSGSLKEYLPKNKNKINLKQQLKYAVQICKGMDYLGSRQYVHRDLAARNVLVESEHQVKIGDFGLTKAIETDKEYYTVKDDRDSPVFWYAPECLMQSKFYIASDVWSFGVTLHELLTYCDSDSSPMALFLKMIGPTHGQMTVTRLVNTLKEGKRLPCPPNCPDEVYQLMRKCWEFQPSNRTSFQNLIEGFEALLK

Structure (SMILES)	Activity (T-cell [1])	inhibition (PBMC [2])	inhibition (PBMC [3])	inhibition (PBMC [4])	pIC50 (T-cell [5])	phospho-STAT6 expression level at 90 µM (PBMC [6])	inhibition [7]	inhibition [8]	Activity (PBMC [9])	inhibition (PBMC [10])	other results
OC[C@H]1NC[C@H](O)[C@@H](O)[C@@H]1O [DUVOGLUSTAT]	2.53%	Active	inactive	inactive	4.59	9.6%	inactive	inactive	inactive	Active	–
OC[C@H]1NC[C@@H](O)[C@@H](O)[C@@H]1O [DEOXYMANNOJIRIMYCIN]	1.5%	Active	inactive	inactive	–	8.8%	inactive	inactive	–	Active	–
C/C=C/C[C@@H](C)[C@@H](O)[C@H]1C(=O)N[C@@H](CC)C(=O)N(C)CC(=O)N(C)[C@@H](CC(C)C)C(=O)N[C@@H](C(C)C)C(=O)N(C)[C@@H](CC(C)C)C(=O)N[C@@H](C)C(=O)N[C@H](C)C(=O)N(C)[C@@H](CC(C)C)C(=O)N(C)[C@@H](CC(C)C)C(=O)N(C)[C@@H](C(C)C)C(=O)N1C [CYCLOSPORINE]	0.71%	–	–	–	–	3.7%	–	–	26%	–	–
OC[C@@H]1[C@@H](O)[C@H](O)[C@@H](O)CN1Cc1c(F)c(F)c(F)c(F)c1F	0.79%	Active	inactive	inactive	4.70	4.5%	Active	Active	26%	Active	inhibition [11]: tde; inhibition (Mus musculus [12]): inactive; Activity (T-cell [13]): 44%; inhibition (Mus musculus [14]): Active; Activity (PBMC [15]): 4.7%; inhibition (Mus musculus [16]): inactive; Activity (PBMC [17]): 7.2%; inhibition (Mus musculus [18]): inactive; Activity (T-cell [19]): 28%; Activity (PBMC [20]): 5.2%; Activity (Schistosoma japonicum): Active; inhibition [21]: tde; inhibition (Mus musculus [22]): inactive; viability at 72 h, 90 µM [23]: 83%; inhibition (Mus musculus [24]): inactive; Activity (Splenocyte): Active; Activity (T-cell [25]): Active; inhibition (Mus musculus [26]): inactive; Activity (Mus musculus [27]): Active
